Assay results: patent publication EP0937779A2, “Cell damage marker” (ORIENTAL YEAST CO., LTD., priority 1998, dated 1999)
Where two headings read alike, the source gives them in different places.

How the values were obtained:
Assay type in all cases: biochemical
[1] = molecular target: PGAM-M standard (based on pooled sera) (Homo sapiens, UniProt P15259); test: Effect of potassium tetrathionate on PGAM-M, automatic analysis method (NADH reduction rate assay)
Procedure: (§1) The reagent 1 (R-1; 250 µl) was mixed with a culture medium sample (5 µl), and the resulting mixture was then left to stand for 5 minutes. By subsequently using the reagent 2 (R-2), the PGAM activity was assayed.
(§2) Because the reagent 2 (R-2) contained glycerate-3-P (substrate), the reaction was initiated by adding 41 µl of the reagent 2. About 1.5 minutes after the addition of the reagent 2, the assay was started.
(§3) By using an automatic analyzer of Hitachi 7150 and by presetting the assay code to RATE-A: 32-39 and the assay temperature to 37 °C, the decrease of absorbance A at 340 nm was determined on the basis of the reduction of NADH for about 1.5 minutes. Additionally, a sub-wave length was set at 405 nm for the determination. Furthermore, the value of a conventionally known cell damage marker LDH (lactate dehydrogenase) is shown concurrently.
(§4) Prior to the assay of B-PGAM in the cell culture medium, the effect of potassium tetrathionate on PGAM-B and PGAM-M was examined by the automatic analysis method. As the sample, a type-B standard and a type-M standard (both based on pooled sera) were used. These standards were diluted with physiological saline to prepare 1/1 to 1/8 samples. Various concentrations of potassium tetrathionate were added to these samples for 5-min reaction, and subsequently, the amounts of the type-B and type-M PGAMs were determined by utilizing the automatic analysis method.
(§5) By using the reagents of Example 2, the amounts of PGAM-B and PGAM-M were individually determined by the automatic analysis method, and the results are shown below in Table 4. […]

[2] = molecular target: PGAM-B standard (based on pooled sera) (Homo sapiens, UniProt P18669); test: Effect of potassium tetrathionate on PGAM-B, automatic analysis method (NADH reduction rate assay); conditions: for remaining activity at 1900 µM: final potassium tetrathionate concentration 1.9 mM; for remaining activity at 1900 µM / remaining activity at 3800 µM / remaining activity at 7600 µM: 5-min reaction, read-out: Effect of potassium tetrathionate over PGAM-B (residual activity, 0 mM = 100); for remaining activity at 3800 µM: final potassium tetrathionate concentration 3.8 mM; for remaining activity at 7600 µM: final potassium tetrathionate concentration 7.6 mM
Chain of PGAM-B standard (based on pooled sera) (P18669 whole entry): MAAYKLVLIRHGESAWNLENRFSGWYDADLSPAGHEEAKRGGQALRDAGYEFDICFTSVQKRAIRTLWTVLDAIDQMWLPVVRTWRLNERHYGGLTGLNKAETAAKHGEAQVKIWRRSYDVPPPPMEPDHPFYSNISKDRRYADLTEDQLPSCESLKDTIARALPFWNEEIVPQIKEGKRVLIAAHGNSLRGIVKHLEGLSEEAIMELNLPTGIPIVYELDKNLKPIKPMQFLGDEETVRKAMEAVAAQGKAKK
Procedure: as §1, §2, §3, §4, §5

[3] = molecular target: type-M isozyme (Homo sapiens, UniProt P15259); test: Inhibition experiment over purified PGAM isozymes, type-M; conditions: tetrathionic acid used as the PGAM inhibitor
Chain of type-M isozyme (P15259 whole entry): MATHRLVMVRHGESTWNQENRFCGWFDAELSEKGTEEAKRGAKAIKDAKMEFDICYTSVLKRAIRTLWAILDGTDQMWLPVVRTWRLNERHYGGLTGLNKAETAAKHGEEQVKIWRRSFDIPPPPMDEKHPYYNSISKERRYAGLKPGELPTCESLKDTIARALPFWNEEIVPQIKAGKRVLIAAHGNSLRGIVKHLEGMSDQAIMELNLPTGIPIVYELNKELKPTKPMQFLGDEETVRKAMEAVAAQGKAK
Source text: (§6) The method for assaying PGAM in accordance with the invention will now be described about the case of the type-B isozyme. The method for assaying the type-B isozyme comprises treating a sample with a PGAM inhibitor to inactivate specific isozymes and assaying the remaining PGAM activity. […] By adding tetrathionic acid to serum to inactivate the type-M isozyme and subsequently assaying the residual PGAM activity, therefore, the type-B isozyme can be assayed separately.
(§7) At an inhibition experiment over purified PGAM isozymes, only 50 % of the type-MB isozyme is inactivated through the treatment with tetrathionic acid, so 50 % of the activity remains. Because the PGAM activity in normal serum and brain tissue is nearly totally derived from the type-B isozyme in a practical sense, the residual activity of the type-MB isozyme is negligible in biological samples.

[4] = molecular target: type-B isozyme (Homo sapiens, UniProt P18669); test: Inhibition experiment over purified PGAM isozymes, type-B; conditions: tetrathionic acid used as the PGAM inhibitor
Chain of type-B isozyme (P18669 whole entry): as the sequence (P18669 whole entry) above
Source text: as §6, §7

[5] = molecular target: type-MB isozyme (Homo sapiens, UniProt P15259); test: Inhibition experiment over purified PGAM isozymes, type-MB; conditions: treatment with tetrathionic acid
Chain of type-MB isozyme (P15259 whole entry): as the sequence (P15259 whole entry) above
Chain of type-MB isozyme (P18669 whole entry, further chain): as the sequence (P18669 whole entry) above
Source text: as §6, §7

[6] = dilution ratio 1/1, 0 mM = 100 (183U/L)
[7] = dilution ratio 1/2, 0 mM = 100 (91U/L)
[8] = dilution ratio 1/4, 0 mM = 100 (46U/L)
[9] = dilution ratio 1/8, 0 mM = 100 (22U/L)

Chain of PGAM-M standard (based on pooled sera) (P15259 whole entry): as the sequence (P15259 whole entry) above

Row | SMILES | remaining activity at 1900 µM ([1]; final potassium tetrathionate concentration 1.9 mM, dilution ratio 1/1, 5-min reaction, 0 mM = 100 (2727U/L), read-out: Effect of potassium tetrathionate over PGAM-M (residual activity, 0 mM = 100)) [%] | remaining activity at 3800 µM ([1]; final potassium tetrathionate concentration 3.8 mM, dilution ratio 1/1, 5-min reaction, 0 mM = 100 (2727U/L), read-out: Effect of potassium tetrathionate over PGAM-M (residual activity, 0 mM = 100)) [%] | remaining activity at 7600 µM ([1]; final potassium tetrathionate concentration 7.6 mM, dilution ratio 1/1, 5-min reaction, 0 mM = 100 (2727U/L), read-out: Effect of potassium tetrathionate over PGAM-M (residual activity, 0 mM = 100)) [%] | type-M isozyme inactivated with potassium tetrathionate (summary in words) ([1]; summary of Table 4) | remaining activity at 1900 µM [2, 6] [%] | remaining activity at 1900 µM [2, 7] [%] | remaining activity at 1900 µM [2, 8] [%] | remaining activity at 1900 µM [2, 9] [%] | remaining activity at 3800 µM [2, 6] [%] | remaining activity at 3800 µM [2, 7] [%] | remaining activity at 3800 µM [2, 8] [%] | remaining activity at 3800 µM [2, 9] [%] | remaining activity at 7600 µM [2, 6] [%] | remaining activity at 7600 µM [2, 7] [%] | remaining activity at 7600 µM [2, 8] [%] | remaining activity at 7600 µM [2, 9] [%] | type-B isozyme influenced by potassium tetrathionate (summary in words) ([2]; summary of Table 4) | type-M isozyme inactivated [3] [%] | type-B isozyme inactivated (in words) [4] | activity of the type-MB isozyme that remains [5] [%]
1 | O=S(=O)([O-])SSS(=O)(=O)[O-].[K+].[K+] [potassium tetrathionate] | 0 | 0 | 0 | specifically inactivated | 98 | 98 | 97 | 93 | 92 | 91 | 86 | 93 | 81 | 80 | 59 | 75 | absolutely never influenced | – | – | –
2 | O=S(=O)(O)SSS(=O)(=O)O [tetrathionic acid] | – | – | – | – | – | – | – | – | – | – | – | – | – | – | – | – | – | ~100 | hardly inactivated | 50
